Experimental data reported in US20040122209A1, “Products for regulating the degradation of collagen and methods for identifying same” (Shriners Hospital For Children, priority 2002, published 2004).

Assays:
[1] = test system: ERK1/2; experiment: Western immunoblot for phosphorylated ERK1/2 in human chondrocytes; type: cell-based
Experimental: To detect activation of MAP kinases (ERK1/2, p38 MAPK, and JNK1/2), first-passaged chondrocytes plated onto 10-cm culture dishes were incubated with CB12-II (SP), USP, TNF-α, native human type II collagen, human fibronectin, and antibodies to α2β1 and α5β1 for 5-60 min. In some experiments, chondrocytes were precultured with U0126 (inhibitor of phosphorylation of MEK1/2, up-stream kinase molecule of ERK1/2) at 1 μM for 1 h, SB203580 (inhibitor of phosphorylation of p38 MAPK) at 1 μM for 1 h, Herbimycin A (tyrosine kinase inhibitor) at 1 μg/ml for overnight, Wortmannin (PI3 kinase inhibitor) at 100 nM for 1 h, and Cytochalasin D (focal adhesion inhibitor) at 3 μM for 30 or 60 min before adding peptides.
After a variable but designated incubation time, chondrocytes were washed twice with ice cold PBS and lysed in RIPA buffer (10 mM Tris/HCl, pH 7.4, 0.1% SDS, 1% NP-40, 0.1% sodium deoxycholate, 150 mM NaCl, 1 mM EDTA) containing freshly added proteinase and phosphatase inhibitors (1 mM PMSF, 10 μg/ml leupeptin, 1 μg/ml aprotinin, 1 mM Na3VO4, 1 mM NaF). Cell lysate was centrifuged and supernatant was collected. Protein concentration was determined using Bradford's method. Equal amounts of protein were separated on 10% SDS-polyacrylamide gels under reducing conditions and were electrotransferred to a nitrocellulose membrane (Bio-Rad). To block nonspecific binding, the membranes were incubated in PBS containing 5% non-fat milk overnight at 4° C. The membranes were then probed with rabbit antibodies against phosphorylated ERK1/2, p38, and JNK1/2 (New England BioLabs). Antibodies were diluted 1:1000 in PBS containing 0.5% non-fat milk and reacted with the membrane for 1 h at room temperature. Blots were washed with PBS containing 0.1% Tween-20 three times, and incubated for 1 h at room temperature with horseradish peroxidase (HRP)-conjugated goat anti-rabbit IgG (New England BioLabs) diluted 1:2000 with PBS-0.1% Tween 20 for ECL system (Amersham). Then, the membranes were washed with PBS-Tween, and the membranes were detected with the addition of a 1:1 dilution of the ECL detection reagents (Amersham) 1 and 2 for 1 min. The solution was removed, and the membranes were wrapped in plastic wrap and exposed to film for various amounts of time.
First-passaged confluent human chondrocytes were treated with CB12-II (SP) (10 μM), USP (10 μM), anti-α2β1and α5β1 antibodies, anti-integrin α2β1 blocking antibody, and IL-1β or TNF-α. Cell lysates were immunoblotted using antibody that detects phosphorylated p-ERK1I/2 or p-MEK. In some experiments, U0126 at 10 μM, a specific inhibitor of an upstream molecule, MEK1/2, that activates ERK1/2, and SB203580 at 10 μM, that inhibits p38 MAPK activity, were added to the culture 1 h before peptides, antibodies, and cytokines. Herbimycin A, cytochalasin D, and wortmannin were also used as inhibitors.

[2] = test system: bovine articular cartilage explant; experiment: Proteoglycan (GAG) content and release in bovine explant culture; type: cell-based; settings: subpeptides at 1 and 10 μM
Experimental: The cartilages were prepared as previously described (Dahlberg, L. et al. (2000) supra. In brief, the cartilage samples were washed three times with basal culture medium containing Dulbecco's modified Eagle's medium (DMEM; Gibco BRL, Life Technologies, Grand Island, N.Y.) with 20 mM HEAPS buffer (pH 7.4) (Gibco BRL), 45 mM NaHCO3, 100 units/ml penicillin, 100 μg/ml streptomycin and 150 μg/ml gentamycin sulphate (Medium A). Full-depth cartilage slices from a single area, around 20 mm×20 mm were cut vertical to the articular surface and then into cubes of approximately 2 mm×2 mm (5-7 cubes were randomly obtained and wet weights about 50-70 mg/well determined). The cartilage was assigned to 48 well plate (ca 40 mg/well) and kept in Medium A supplemented with 50 μg/ml ascorbic acid, 0.1 mg/bovine serum albumin, 50 μg/ml insulin, 5.0 μg/ml and 5.0 μg/ml sodium DMEM alone at 37° C. in 95% air/5% CO2. The cartilage was precultured for 2 days and medium was changed at day 0. Thereafter medium (as described in pellet cultures) was replaced every four days. Various CNBr fragments and/or synthetic peptides were freshly added from day 0 at each medium change. Thereafter, cartilage explants and conditioned media were harvested and stored at −20° C. In order to show the specificity of the peptide fragments of one embodiment on degradation of type II collagen as compared with proteoglycan, primarily aggrecan, sulphated glycosaminoglycan (GAG) content was determined in both the α-chymotrypsin and proteinase K digests for total proteoglycan (predominantly aggrecan) content in cell pellets, cartilage explants and also in conditioned media. Measurement of release of proteoglycan into media was tested using dimethylene blue dye binding as previously described (Dahlberg, L. et al. (2000) supra).

Sequence: ERGPPGPQGARGFPGTPGLPGVK [CB12-II]
- phosphorylation of ERK1/2 compared with USP at the same concentration ([1]; 10 μM): more than USP
- time of maximum ERK1/2 phosphorylation ([1]; 10 μM): 15 to 30 min
- time to phosphorylation of ERK1/2 after adding peptide ([1]; 10 μM): ≤ 5 min
- phosphorylation of ERK 1/2, dose dependence ([1]; 1, 10 and 50 μM, 15 min after addition): dose-dependently
- proteoglycan breakdown [2]: no significant effect
